Converted amounts (≈) assume the structure as drawn.
Assay: Solubility of nimodipine in various aqueous solvent systems
Format: physicochemical
Conditions: for solubility: aqueous solvent system (glycerin/ethanol/water/PEG400), aqueous with cosolvent or surfactant or cyclodextrin, thermodynamic from solid, Nimodipine solubility

solubility (Glycerin 0%, Ethanol 0%, Water 1%, PEG400 99%): 43000 µg/mL (≈ 103 mM)
solubility (Glycerin 0%, Ethanol 0%, Water 5%, PEG400 95%): 38000 µg/mL (≈ 90.8 mM)
solubility (Glycerin 0%, Ethanol 0%, Water 10%, PEG400 90%): 26000 µg/mL (≈ 62.1 mM)
solubility (Glycerin 0%, Ethanol 0%, Water 15%, PEG400 85%): 14000 µg/mL (≈ 33.5 mM)
solubility (Glycerin 0%, Ethanol 0%, Water 40%, PEG400 60%): 1300 µg/mL (≈ 3.11 mM)
solubility (Glycerin 0%, Ethanol 0%, Water 50%, PEG400 50%): 400 µg/mL (≈ 0.956 mM)
solubility (Glycerin 0%, Ethanol 1.0%, Water 10%, PEG400 89%): 31000 µg/mL (≈ 74.1 mM)
solubility (Glycerin 0%, Ethanol 1.0%, Water 20%, PEG400 79%): 18000 µg/mL (≈ 43 mM)
solubility (Glycerin 0%, Ethanol 5.0%, Water 10%, PEG400 85%): 29000 µg/mL (≈ 69.3 mM)
solubility (Glycerin 0%, Ethanol 5.0%, Water 20%, PEG400 75%): 14000 µg/mL (≈ 33.5 mM)
solubility (Glycerin 20%, Ethanol 0%, Water 20%, PEG400 60%): 1500 µg/mL (≈ 3.58 mM)
solubility (Glycerin 30%, Ethanol 0%, Water 10%, PEG400 60%): 1600 µg/mL (≈ 3.82 mM)
solubility (Glycerin 35%, Ethanol 0.4%, Water 1%, PEG400 63%): 13400 µg/mL (≈ 32 mM)
solubility (Glycerin 35%, Ethanol 0.4%, Water 10%, PEG400 54%): 5700 µg/mL (≈ 13.6 mM)
solubility (Glycerin 36%, Ethanol 0.4%, Water 20%, PEG400 43% (Table VI)): 1500 µg/mL (≈ 3.58 mM)
solubility (Glycerin 36%, Ethanol 0.4%, Water 20%, PEG400 43% (Table VII)): 1500 µg/mL (≈ 3.58 mM)
solubility (Glycerin 39%, Ethanol 0%, Water 1%, PEG400 60%): 2100 µg/mL (≈ 5.02 mM)
solubility (Glycerin 46%, Ethanol 0.4%, Water 10%, PEG400 43%): 1500 µg/mL (≈ 3.58 mM)
solubility (Glycerin 51%, Ethanol 0.4%, Water 5%, PEG400 43%): 4300 µg/mL (≈ 10.3 mM)
solubility (Glycerin 55%, Ethanol 0.4%, Water 1%, PEG400 43%, room temperature): 5200 µg/mL (≈ 12.4 mM)
Effect of higher amounts of ethanol on nimodipine solubility (water, polyethylene glycol, ethanol solvent system, higher amounts of ethanol (Example 2)): reduced nimodipine solubility
SMILES: COCCOC(=O)C1=C(C)NC(C)=C(C(=O)OC(C)C)C1c1cccc([N+](=O)[O-])c1 (stereo not drawn) [Nimodipine]

Source: patent US11819497B2 (Azurity Pharmaceuticals, Inc., priority 2018, dated 2023)
